Source: PMC8447900 (Chemical Science, 2021)

Tested on: hENT1
Type: cell-based, human
Conditions: PK15-ENT1 cells

Compound	effect of AZD8055 on activity of isomer 1a (AZD8055 (5 μM) combined with isomer 1a)	effect of rapamycin on potency of isomer 1a (rapamycin (5 μM) combined with isomer 1a)
COc1ccc(-c2ccc3c(N4CCOC[C@@H]4C)nc(N4CCOC[C@@H]4C)nc3n2)cc1CO [AZD8055]	negligible effect on the activity of isomer 1a	
CO[C@H]1C[C@@H]2CC[C@@H](C)[C@@](O)(O2)C(=O)C(=O)N2CCCC[C@H]2C(=O)O[C@H]([C@H](C)C[C@@H]2CC[C@@H](O)[C@H](OC)C2)CC(=O)[C@H](C)/C=C(\C)[C@@H](O)[C@@H](OC)C(=O)[C@H](C)C[C@H](C)/C=C/C=C/C=C/1C [Rapamycin]		antagonizes isomer 1a inhibition of hENT1-mediated thymidine uptake
